Four molecules from paper PMC3914206 can be followed below.

In the assay the target is T1, panel of 442 kinases (Homo sapiens, UniProt P36888, R834Q).
T1 construct: purchased KINOMEscan
T1 sequence (P36888 27-993 R834Q): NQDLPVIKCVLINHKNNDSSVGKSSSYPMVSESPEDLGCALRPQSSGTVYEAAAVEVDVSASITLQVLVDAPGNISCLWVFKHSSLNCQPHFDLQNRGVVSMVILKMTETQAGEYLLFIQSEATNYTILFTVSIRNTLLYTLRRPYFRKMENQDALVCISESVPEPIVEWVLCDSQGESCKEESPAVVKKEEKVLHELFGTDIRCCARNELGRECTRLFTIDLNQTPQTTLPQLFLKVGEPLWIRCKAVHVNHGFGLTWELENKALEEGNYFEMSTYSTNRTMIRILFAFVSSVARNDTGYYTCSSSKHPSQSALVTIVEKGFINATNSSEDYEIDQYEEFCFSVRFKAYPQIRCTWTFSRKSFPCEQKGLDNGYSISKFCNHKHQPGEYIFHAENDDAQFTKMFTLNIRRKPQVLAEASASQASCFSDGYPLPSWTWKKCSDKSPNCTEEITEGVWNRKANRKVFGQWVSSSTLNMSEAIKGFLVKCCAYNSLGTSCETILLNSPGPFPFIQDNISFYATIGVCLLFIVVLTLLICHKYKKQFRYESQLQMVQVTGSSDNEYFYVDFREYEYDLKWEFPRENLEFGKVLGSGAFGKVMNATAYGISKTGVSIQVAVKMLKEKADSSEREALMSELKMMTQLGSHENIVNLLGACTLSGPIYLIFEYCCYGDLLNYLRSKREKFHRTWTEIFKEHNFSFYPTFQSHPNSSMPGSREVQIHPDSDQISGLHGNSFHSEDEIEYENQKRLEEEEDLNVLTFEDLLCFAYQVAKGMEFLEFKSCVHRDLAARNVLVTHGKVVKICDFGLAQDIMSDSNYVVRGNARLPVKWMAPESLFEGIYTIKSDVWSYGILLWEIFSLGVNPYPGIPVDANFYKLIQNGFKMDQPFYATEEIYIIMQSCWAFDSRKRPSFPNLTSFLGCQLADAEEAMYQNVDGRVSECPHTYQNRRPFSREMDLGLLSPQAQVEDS
It counts as binding. The following applies: Compound Concentration 10 µM. The text has this: We assessed the selectivity of members of this scaffold using the KINOMEscan methodology across a near comprehensive panel of 442 kinases [[18,27]].
Take `CCOc1cc(C(=O)N2CCC(N3CCN(C)CC3)CC2)ccc1Nc1ncc2c(n1)N(C1CCCC1)c1ccccc1C(=O)N2C` [Compound 26]: the “KINOMEscan: FLT3(R834Q)” value is 100.

In the case of `COc1cc(C(=O)N2CCC(N3CCN(C)CC3)CC2)ccc1Nc1ncc2c(n1)N1CCc3cccc(c31)C(=O)N2C` [Compound 24], the “KINOMEscan: FLT3(R834Q)” value is on record as 100.

With `COc1cc(C(=O)N2CCC(N3CCN(C)CC3)CC2)ccc1Nc1ncc2c(n1)N(C)c1ccccc1C(=O)N2C` [15 (LRRK2-IN-1)], the “KINOMEscan: FLT3(R834Q)” value is 100.

As for `COc1cc(C(=O)N2CCC(N3CCN(C)CC3)CC2)ccc1Nc1ncc2c(n1)N(C1CCCC1)c1ccccc1C(=O)N2C` [Compound 25, 11-cyclopentyl-2-((2-methoxy-4-(4-(4-methylpiperazin-1-yl)piperidine-1-carbonyl)phenyl)amino)-5-methyl-5H-benzo[e]pyrimido[5,4-b][1,4]diazepin-6(11H)-one], the “KINOMEscan: FLT3(R834Q)” value came out at 100.
